Patent US20130029928A1 (priority 2010, published 2013)
Like-named read-outs stand apart in the source and are kept apart here.

Experiment: Phase I study CXR1002-001: plasma pharmacokinetics (LC-MS/MS)
Assay type: in vivo, human
Conditions: human, plasma, oral; for concentration at 528 h / concentration at 528 hr: 528 hr (Day 23); for concentration at 696 h: 696 hr (Day 30); for concentration at 840 h: 840 hr (Day 36)
Text: PK samples, PD (fasting) samples, blood glucose, and blood triglyceride samples, were taken over a 6-week period.
Dose limiting toxicity (DLT) will be based on the toxicity assessments over the first 3-week period of the repeat dosing schedule. PK samples (single blood sample) were taken on the following basis: • Every 6 weeks during the repeat dosing phase • If dosing is interrupted or stopped, samples will be taken at intervals according to patient convenience • PK sampling for safety evaluation may take place at any time, as clinically indicated
Plasma samples were collected after the single 50 mg dose at the following timepoints: Pre-dose, and then 0.25, 0.5, 0.75, 1, 1.5, 2, 3, 4, 6, 24, 48, and 72 hours after administration and then once weekly at weeks 2, 3, 4, 5, and 6 (days 8, 15, 22, 29, and 36). For patients treated with the weekly repeat dose, plasma samples were collected at the following timepoints: Pre-dose and then 2, 3, 4 and 24 hours after administration for a total of 6 weeks. Thereafter a single sample was collected every 6 weeks for monitoring of exposure during long term treatment. Plasma samples were processed at site and stored at −80° C. prior to batch shipment to the analytical laboratory.

[1] = 100 mg, Patient 005 Dose 100 mg, read-out: Concentration
[2] = 100 mg, Patient 006 Dose 100 mg, read-out: Concentration
[3] = 100 mg, Patient 007 Dose 100 mg, read-out: Concentration
[4] = 200 mg, Patient 008 Dose 200 mg, read-out: Concentration
[5] = 200 mg, Patient 009 Dose 200 mg, read-out: Concentration

## O=C(O)C(F)(F)C(F)(F)C(F)(F)C(F)(F)C(F)(F)C(F)(F)C(F)(F)F [CXR1002]
100 mg, Patient 005 Dose 100 mg, 360 hr (Day 16), read-out: Concentration
  concentration at 360 h: 47.4 µM
100 mg, Patient 005 Dose 100 mg, 504 hr (Day 22), read-out: Concentration
  concentration at 504 h: 48.4 µM
100 mg, Patient 005 Dose 100 mg, 506 hr, read-out: Concentration
  concentration at 506 h: 84 µM
[1]
  concentration at 507 h: 74.4 µM
  concentration at 528 h: 57.9 µM
  concentration at 676 h: 82.7 µM
  concentration at 696 h: 78.8 µM
  concentration at 840 h: 99.4 µM
100 mg, Patient 005 Dose 100 mg, 508 hr, read-out: Concentration
  concentration at 508 h: 87.4 µM
100 mg, Patient 005 Dose 100 mg, 672 hr (Day 29), read-out: Concentration
  concentration at 672 h: 80.8 µM
100 mg, Patient 005 Dose 100 mg, 674 hr, read-out: Concentration
  concentration at 674 h: 99.7 µM
100 mg, Patient 005 Dose 100 mg, 675 hr, read-out: Concentration
  concentration at 675 h: 101 µM
100 mg, Patient 005 Dose 100 mg, 842 hr, read-out: Concentration
  concentration at 842 h: 80 µM
100 mg, Patient 005 Dose 100 mg, 843 hr, read-out: Concentration
  concentration at 843 h: 98.9 µM
100 mg, Patient 005 Dose 100 mg, 844 hr, read-out: Concentration
  concentration at 844 h: 91.4 µM
100 mg, Patient 005 Dose 100 mg, 864 hr (Day 37), read-out: Concentration
  concentration at 864 h: 109 µM
100 mg, Patient 005 Dose 100 mg, Day 92
  concentration at 92 day: 276 µM
100 mg, Patient 006 Dose 100 mg
  concentration at 0 h: 0.21 µM
[2]
  concentration at 2 h: 32.3 µM
  concentration at 3 h: 27.1 µM
  concentration at 170 h: 36.6 µM
  concentration at 338 h: 49.5 µM
  concentration at 339 h: 55.9 µM
  concentration at 507 hr: 83.8 µM
  concentration at 528 hr: 97 µM
  concentration at 696 h: 89.5 µM
  concentration at 840 h: 85.6 µM
100 mg, Patient 006 Dose 100 mg, 4 hr, read-out: Concentration
  concentration at 4 h: 24.6 µM
100 mg, Patient 006 Dose 100 mg, 24 hr (Day 2), read-out: Concentration
  concentration at 24 h: 28.2 µM
100 mg, Patient 006 Dose 100 mg, 168 hr (Day 8), read-out: Concentration
  concentration at 168 h: 26.2 µM
100 mg, Patient 006 Dose 100 mg, 171 hr, read-out: Concentration
  concentration at 171 hr: 41.1 µM
100 mg, Patient 006 Dose 100 mg, 172 hr, read-out: Concentration
  concentration at 172 hr: 47.5 µM
100 mg, Patient 006 Dose 100 mg, 192 hr (Day 9), read-out: Concentration
  concentration at 192 hr: 44.7 µM
100 mg, Patient 006 Dose 100 mg, 336 hr (Day 15), read-out: Concentration
  concentration at 336 h: 33.1 µM
100 mg, Patient 006 Dose 100 mg, 360 hr (Day 16), read-out: Concentration
  concentration at 360 h: 65.2 µM
100 mg, Patient 006 Dose 100 mg, 504 hr (Day 22), read-out: Concentration
  concentration at 504 h: 70.5 µM
100 mg, Patient 006 Dose 100 mg, 506 hr, read-out: Concentration
  concentration at 506 h: 76.4 µM
100 mg, Patient 006 Dose 100 mg, 672 hr (Day 29), read-out: Concentration
  concentration at 672 h: 86.9 µM
100 mg, Patient 006 Dose 100 mg, 674 hr, read-out: Concentration
  concentration at 674 h: 85.7 µM
100 mg, Patient 006 Dose 100 mg, 842 hr, read-out: Concentration
  concentration at 842 hr: 179 µM
100 mg, Patient 006 Dose 100 mg, 843 hr, read-out: Concentration
  concentration at 843 hr: 138 µM
100 mg, Patient 006 Dose 100 mg, 844 hr, read-out: Concentration
  concentration at 844 hr: 138 µM
100 mg, Patient 006 Dose 100 mg, 864 hr (Day 37), read-out: Concentration
  concentration at 864 hr: 123 µM
100 mg, Patient 007 Dose 100 mg
  concentration at 0 hr: 0 nM
[3]
  concentration at 2 hr: 30.9 µM
  concentration at 3 hr: 28.6 µM
  concentration at 338 hr: 52.8 µM
  concentration at 339 hr: 53.1 µM
  concentration at 507 hr: 65.8 µM
  concentration at 528 hr: 63.4 µM
100 mg, Patient 007 Dose 100 mg, 4 hr, read-out: Concentration
  concentration at 4 hr: 19.3 µM
100 mg, Patient 007 Dose 100 mg, 24 hr (Day 2), read-out: Concentration
  concentration at 24 hr: 17.3 µM
100 mg, Patient 007 Dose 100 mg, 168 hr (Day 8), read-out: Concentration
  concentration at 168 hr: 12.2 µM
100 mg, Patient 007 Dose 100 mg, 336 hr (Day 15), read-out: Concentration
  concentration at 336 hr: 19.2 µM
100 mg, Patient 007 Dose 100 mg, 340 hr, read-out: Concentration
  concentration at 340 hr: 55.8 µM
100 mg, Patient 007 Dose 100 mg, 360 hr (Day 16), read-out: Concentration
  concentration at 360 hr: 32 µM
100 mg, Patient 007 Dose 100 mg, 504 hr (Day 22), read-out: Concentration
  concentration at 504 hr: 39.7 µM
100 mg, Patient 007 Dose 100 mg, 506 hr, read-out: Concentration
  concentration at 506 hr: 53.1 µM
100 mg, Patient 007 Dose 100 mg, 508 hr, read-out: Concentration
  concentration at 508 hr: 73 µM
200 mg, Patient 008 Dose 200 mg
  concentration at 0 hr: 0 nM
[4]
  concentration at 2 hr: 114 µM
  concentration at 3 hr: 102 µM
  concentration at 170 h: 171 µM
  concentration at 338 hr: 147 µM
  concentration at 339 hr: 172 µM
  concentration at 507 h: 368 µM
  concentration at 528 h: 285 µM
  concentration at 676 h: 364 µM
  concentration at 696 h: 426 µM
  concentration at 840 h: 425 µM
200 mg, Patient 008 Dose 200 mg, 4 hr, read-out: Concentration
  concentration at 4 h: 81 µM
200 mg, Patient 008 Dose 200 mg, 24 hr (Day 2), read-out: Concentration
  concentration at 24 h: 70.4 µM
200 mg, Patient 008 Dose 200 mg, 168 hr (Day 8), read-out: Concentration
  concentration at 168 h: 64.6 µM
200 mg, Patient 008 Dose 200 mg, 171 hr, read-out: Concentration
  concentration at 171 h: 143 µM
200 mg, Patient 008 Dose 200 mg, 172 hr, read-out: Concentration
  concentration at 172 h: 130 µM
200 mg, Patient 008 Dose 200 mg, 192 hr (Day 9), read-out: Concentration
  concentration at 192 h: 110 µM
200 mg, Patient 008 Dose 200 mg, 336 hr (Day 15), read-out: Concentration
  concentration at 336 hr: 124 µM
200 mg, Patient 008 Dose 200 mg, 340 hr, read-out: Concentration
  concentration at 340 h: 192 µM
200 mg, Patient 008 Dose 200 mg, 360 hr (Day 16), read-out: Concentration
  concentration at 360 h: 211 µM
200 mg, Patient 008 Dose 200 mg, 504 hr (Day 22), read-out: Concentration
  concentration at 504 h: 277 µM
200 mg, Patient 008 Dose 200 mg, 506 hr, read-out: Concentration
  concentration at 506 h: 282 µM
200 mg, Patient 008 Dose 200 mg, 508 hr, read-out: Concentration
  concentration at 508 h: 281 µM
200 mg, Patient 008 Dose 200 mg, 672 hr (Day 29), read-out: Concentration
  concentration at 672 hr: 337 µM
200 mg, Patient 008 Dose 200 mg, 674 hr, read-out: Concentration
  concentration at 674 hr: 356 µM
200 mg, Patient 008 Dose 200 mg, 675 hr, read-out: Concentration
  concentration at 675 hr: 321 µM
200 mg, Patient 008 Dose 200 mg, 842 hr, read-out: Concentration
  concentration at 842 h: 361 µM
200 mg, Patient 008 Dose 200 mg, 843 hr, read-out: Concentration
  concentration at 843 h: 397 µM
200 mg, Patient 008 Dose 200 mg, 844 hr, read-out: Concentration
  concentration at 844 h: 414 µM
200 mg, Patient 008 Dose 200 mg, 864 hr (Day 37), read-out: Concentration
  concentration at 864 h: 354 µM
200 mg, Patient 009 Dose 200 mg
  concentration at 0 h: 0 µM
[5]
  concentration at 2 h: 93.4 µM
  concentration at 3 h: 61.2 µM
  concentration at 170 h: 149 µM
  concentration at 338 h: 161 µM
  concentration at 339 h: 167 µM
  concentration at 507 h: 296 µM
  concentration at 528 h: 242 µM
  concentration at 676 h: 358 µM
  concentration at 696 h: 338 µM
  concentration at 840 h: 399 µM
200 mg, Patient 009 Dose 200 mg, 4 hr, read-out: Concentration
  concentration at 4 h: 71.1 µM
200 mg, Patient 009 Dose 200 mg, 24 hr (Day 2), read-out: Concentration
  concentration at 24 h: 64.6 µM
200 mg, Patient 009 Dose 200 mg, 168 hr (Day 8), read-out: Concentration
  concentration at 168 h: 60.1 µM
200 mg, Patient 009 Dose 200 mg, 171 hr, read-out: Concentration
  concentration at 171 h: 170 µM
200 mg, Patient 009 Dose 200 mg, 172 hr, read-out: Concentration
  concentration at 172 h: 139 µM
200 mg, Patient 009 Dose 200 mg, 192 hr (Day 9), read-out: Concentration
  concentration at 192 h: 136 µM
200 mg, Patient 009 Dose 200 mg, 340 hr, read-out: Concentration
  concentration at 340 h: 153 µM
200 mg, Patient 009 Dose 200 mg, 360 hr (Day 16), read-out: Concentration
  concentration at 360 h: 218 µM
200 mg, Patient 009 Dose 200 mg, 504 hr (Day 22), read-out: Concentration
  concentration at 504 h: 253 µM
200 mg, Patient 009 Dose 200 mg, 506 hr, read-out: Concentration
  concentration at 506 h: 285 µM
200 mg, Patient 009 Dose 200 mg, 508 hr, read-out: Concentration
  concentration at 508 h: 362 µM
200 mg, Patient 009 Dose 200 mg, 672 hr (Day 29), read-out: Concentration
  concentration at 672 h: 251 µM
200 mg, Patient 009 Dose 200 mg, 674 hr, read-out: Concentration
  concentration at 674 h: 472 µM
200 mg, Patient 009 Dose 200 mg, 675 hr, read-out: Concentration
  concentration at 675 h: 261 µM
200 mg, Patient 009 Dose 200 mg, 842 hr, read-out: Concentration
  concentration at 842 h: 346 µM
